The text below walks through data of article PMC12777510 (Chempluschem, 2025).

The aqueous solubility is how much of the substance goes into solution per volume. The low end stands for a poorly soluble substance, the high end for a readily soluble substance.

Values after ≈ are worked out from the molar mass of the structure shown. *1 amine or outer side, *2 acyl side, *3 side chain or, on linkers, in order; H or OH if unused. Where a SMILES comes first, the peptide text is derived from it. [ ]: non-standard residue; d: D form. X1 = O=C(C[C@@H](CCCCCCCCCCC(F)(F)F)N[*:1])[*:2]

The conditions of the data set: 19F NMR samples in D2O containing Saboraud Dextrose Broth (30 g/L), 5% d6-DMSO added to avoid precipitation.

`NC(=O)CC[C@@H]1NC(=O)[C@@H](CC(N)=O)NC(=O)[C@@H](Cc2ccc(O)cc2)NC(=O)[C@H](CC(N)=O)NC(=O)C[C@@H](CCCCCCCCCCC(F)(F)F)NC(=O)[C@H](CO)NC(=O)[C@@H](CC(N)=O)NC(=O)[C@@H]2CCCN2C1=O` [Compound 9, ω‐CF3 iturin A2] (cyclo(N[dY][dN]QP[dN]S[X1])): the aqueous solubility came out at 100 µM (≈ 110 µg/mL).
